Experimental findings from US10681908B2, “Molecules having pesticidal utility, and intermediates, compositions, and processes, related thereto” (Dow AgroSciences LLC, priority 2016, dated 2020) are described below.

Assay [1] concerns Cabbage Looper (Trichoplusia ni, TRIPNI). The assay can be described thus: Bioassay on Cabbage Looper (CL), 128-well diet tray assay. In kind it is in vivo. The conditions noted are these: for mortality at 50 µg/cm2: 168 h, 50 μg/cm^2 on artificial diet, second instar larvae, five to seven days, 25° C., read-out: CL % Control (or Mortality) rating; for mortality at 0.05 µg/cm2: 0.05 μg/cm^2, read-out: CL Percent control (or mortality); for mortality at 0.5 µg/cm2: 0.5 μg/cm^2, read-out: CL Percent control (or mortality); for mortality at 5 µg/cm2: 5 μg/cm^2, read-out: CL Percent control (or mortality). As to the method:
(§1) Example A: Bioassays on Beet Armyworm (Spodoptera Exigua, LAPHEG) (“BAW”), Corn Earworm (Helicoverpa zea, HELIZE) (“CEW”), and Cabbage Looper (Trichoplusia ni, TRIPNI) (“CL”)
(§2) Certain molecules disclosed in this document were tested against BAW, CEW, and CL using procedures described in the following examples. In the reporting of the results, the “BAW, CEW, & CL Rating Table” was used (See Table Section).
Bioassays on CL were conducted using a 128-well diet tray assay. One to five second instar CL larvae were placed in each well (3 mL) of the diet tray that had been previously filled with 1 mL of artificial diet to which 50 μg/cm^2 of the test molecule (dissolved in 50 μL of 90:10 acetone-water mixture) had been applied (to each of eight wells) and then allowed to dry. Trays were covered with a clear self-adhesive cover and held at 25° C., 14:10 light-dark for five to seven days. Percent mortality was recorded for the larvae in each well; activity in the eight wells was then averaged. The results are indicated in the table entitled “Table ABC: Biological Results” (See Table Section).
(§3) Bioassays on BAW and CL were conducted according to the procedures outlined in Example A: Bioassays on Beet Armyworm (“BAW”) and Cabbage Looper (“CL”) using the indicated concentrations.

In assay [2] the test system is Beet Armyworm (Spodoptera exigua, LAPHEG). The assay can be described thus: Bioassay on Beet Armyworm (BAW), 128-well diet tray assay. It is filed as in vivo. The conditions noted are these: for mortality at 50 µg/cm2: 168 h, 50 μg/cm^2 on artificial diet, second instar larvae, five to seven days, 25° C., read-out: BAW % Control (or Mortality) rating; for mortality at 0.05 µg/cm2: 0.05 μg/cm^2, read-out: BAW Percent control (or mortality); for mortality at 0.5 µg/cm2: 0.5 μg/cm^2, read-out: BAW Percent control (or mortality); for mortality at 5 µg/cm2: 5 μg/cm^2, read-out: BAW Percent control (or mortality). As to the method:
as §1, §2
Bioassays on BAW were conducted using a 128-well diet tray assay. One to five second instar BAW larvae were placed in each well (3 mL) of the diet tray that had been previously filled with 1 mL of artificial diet to which 50 μg/cm^2 of the test molecule (dissolved in 50 μL of 90:10 acetone-water mixture) had been applied (to each of eight wells) and then allowed to dry. Trays were covered with a clear self-adhesive cover and held at 25° C., 14:10 light-dark for five to seven days. Percent mortality was recorded for the larvae in each well; activity in the eight wells was then averaged. The results are indicated in the table entitled “Table ABC: Biological Results” (See Table Section).
as §3

Regarding `C[C@H](CS(=O)(=O)CC(F)(F)F)NC(=O)c1ccc(/C(F)=C/C(c2cc(Cl)c(Cl)c(Cl)c2)C(F)(F)F)cc1Cl` (stereo partly drawn) [F11, 2-Chloro-4-((Z)-1,4,4,4-tetrafluoro-3-(3,4,5-trichlorophenyl)but-1-en-1-yl)-N—((R)-1-((2,2,2-trifluoroethyl)sulfonyl)propan-2-yl)benzamide], the mortality at 50 µg/cm2 in assay [1] and in assay [2] was 50 to 100% each time.
In the case of `C[C@H](C[S+]([O-])CC(F)(F)F)NC(=O)c1ccc(/C(F)=C/C(c2cc(Cl)c(Cl)c(Cl)c2)C(F)(F)F)cc1Cl` (stereo partly drawn) [F12, 2-Chloro-4-((Z)-1,4,4,4-tetrafluoro-3-(3,4,5-trichlorophenyl)but-1-en-1-yl)-N-((2R)-1-((2,2,2-trifluoroethyl)sulfinyl)propan-2-yl)benzamide], the mortality at 50 µg/cm2 in assay [1] and in assay [2] was 50 to 100% each time.
For the compound `Cc1cc(/C(F)=C/C(c2cc(Cl)c(Cl)c(Cl)c2)C(C)(F)F)ccc1C(=O)N[C@H](C)CSCC(F)(F)F` (stereo partly drawn) [F13, 2-Methyl-4-((Z)-1,4,4-trifluoro-3-(3,4,5-trichlorophenyl)pent-1-en-1-yl)-N—((R)-1-((2,2,2-trifluoroethyl)thio)propan-2-yl)benzamide], the mortality at 50 µg/cm2 in assay [1] and in assay [2] was 50 to 100% throughout.
Turning to `Cc1cc(/C(F)=C/C(c2cc(Cl)c(Cl)c(Cl)c2)C(C)(F)F)ccc1C(=O)N[C@H](C)CS(=O)(=O)CC(F)(F)F` (stereo partly drawn) [F14, 2-Methyl-4-((Z)-1,4,4-trifluoro-3-(3,4,5-trichlorophenyl)pent-1-en-1-yl)-N—((R)-1-((2,2,2-trifluoroethyl)sulfonyl)propan-2-yl)benzamide], in assay [1], the mortality (in general, the share of the test organisms that died) at 0.05 µg/cm2 came to 100%; the mortality at 0.5 µg/cm2 came out at 100%; the mortality at 5 µg/cm2 stood at 100%; the mortality at 50 µg/cm2 is 50 to 100%. Further, in assay [2], the mortality at 0.05 µg/cm2 amounted to 69%, the mortality at 0.5 µg/cm2 came to 100%, the mortality at 5 µg/cm2 was 100% and the mortality at 50 µg/cm2 lay within 50 to 100%.
As for `C[C@H](CSCC(F)(F)F)NC(=O)c1ccc(/C(F)=C/C(c2cc(Cl)c(Cl)c(Cl)c2)C(C)(F)F)cc1C(F)(F)F` (stereo partly drawn) [F15, 4-((Z)-1,4,4-Trifluoro-3-(3,4,5-trichlorophenyl)pent-1-en-1-yl)-N—((R)-1-((2,2,2-trifluoroethyl)thio)propan-2-yl)-2-(trifluoromethyl)benzamide], the mortality at 50 µg/cm2 in assay [1] and in assay [2] was 50 to 100% throughout.
For `C[C@H](CS(=O)(=O)CC(F)(F)F)NC(=O)c1ccc(/C(F)=C/C(c2cc(Cl)c(Cl)c(Cl)c2)C(C)(F)F)cc1C(F)(F)F` (stereo partly drawn) [F16, 4-((Z)-1,4,4-Trifluoro-3-(3,4,5-trichlorophenyl)pent-1-en-1-yl)-N—((R)-1-((2,2,2-trifluoroethyl)sulfonyl)propan-2-yl)-2-(trifluoromethyl)benzamide], in assay [1], the mortality at 0.05 µg/cm2 was 100%, the mortality at 0.5 µg/cm2 was found to be 100%, the mortality at 5 µg/cm2 was determined as 100% and the mortality at 50 µg/cm2 is 50 to 100%. Besides, in assay [2], the mortality at 0.05 µg/cm2 was 100%, the mortality at 0.5 µg/cm2 was 100%, the mortality at 5 µg/cm2 stood at 100% and the mortality at 50 µg/cm2 is 50 to 100%.
For `C[C@H](CSCC(F)(F)F)NC(=O)c1ccc(/C(F)=C/C(c2cc(Cl)c(Br)c(Cl)c2)C(F)(F)F)cc1C(F)(F)F` (stereo partly drawn) [F24, 4-((Z)-3-(4-Bromo-3,5-dichlorophenyl)-1,4,4,4-tetrafluorobut-1-en-1-yl)-N—((R)-1-((2,2,2-trifluoroethyl)thio)propan-2-yl)-2-(trifluoromethyl)benzamide], the mortality at 50 µg/cm2 in assay [1] and in assay [2] was 50 to 100% throughout.
Regarding `CCC(F)(F)C(/C=C(\F)c1ccc(C(=O)N[C@H](C)CS(=O)(=O)CC(F)(F)F)c(C(F)(F)F)c1)c1cc(Cl)c(Cl)c(Cl)c1` (stereo partly drawn) [F38, 4-((Z)-1,4,4-Trifluoro-3-(3,4,5-trichlorophenyl)hex-1-en-1-yl)-N—((R)-1-((2,2,2-trifluoroethyl)sulfonyl)propan-2-yl)-2-(trifluoromethyl)benzamide], the mortality at 50 µg/cm2 in assay [1] and in assay [2] was 50 to 100% in each case.
As for `CCC(F)(F)C(/C=C(\F)c1ccc(C(=O)N[C@H](C)CSCC(F)(F)F)c(C(F)(F)F)c1)c1cc(Cl)c(Cl)c(Cl)c1` (stereo partly drawn) [F39, 4-((Z)-1,4,4-Trifluoro-3-(3,4,5-trichlorophenyl)hex-1-en-1-yl)-N—((R)-1-((2,2,2-trifluoroethyl)thio)propan-2-yl)-2-(trifluoromethyl)benzamide], the mortality at 50 µg/cm2 in assay [1] and in assay [2] was 50 to 100% each time.
In the case of `CCSC[C@@H](C)NC(=O)c1ccc(/C(F)=C/C(c2cc(Br)cc(Br)c2)C(F)(F)F)cc1C(F)(F)F` (stereo partly drawn) [F40, 4-((Z)-3-(3,5-Dibromophenyl)-1,4,4,4-tetrafluorobut-1-en-1-yl)-N—((R)-1-(ethylthio)propan-2-yl)-2-(trifluoromethyl)benzamide], the mortality at 50 µg/cm2 in assay [1] and in assay [2] was 50 to 100% each time.
Consider `CCSC[C@@H](C)NC(=O)c1ccc(/C(F)=C/C(c2cc(Cl)c(F)c(Cl)c2)C(F)(F)F)cc1C(F)(F)F` (stereo partly drawn) [F41, 4-((Z)-3-(3,5-Dichloro-4-fluorophenyl)-1,4,4,4-tetrafluorobut-1-en-1-yl)-N—((R)-1-(ethylthio)propan-2-yl)-2-(trifluoromethyl)benzamide], for which the mortality at 50 µg/cm2 in assay [1] and in assay [2] was 50 to 100% throughout.
With `C=Cc1c(Cl)cc(C(/C=C(\F)c2ccc(C(=O)N[C@H](C)CSCC)c(C(F)(F)F)c2)C(F)(F)F)cc1Cl` (stereo partly drawn) [F47, 4-((Z)-3-(3,5-Dichloro-4-vinylphenyl)-1,4,4,4-tetrafluorobut-1-en-1-yl)-N—((R)-1-(ethylthio)propan-2-yl)-2-(trifluoromethyl)benzamide], the mortality at 50 µg/cm2 in assay [1] and in assay [2] was 50 to 100% in each case.
On to `CCSC[C@@H](C)NC(=O)c1ccc(/C(F)=C/C(c2cc(Cl)c(Br)c(Cl)c2)C(F)(F)F)cc1C(F)(F)F` (some centres unmarked) [F48], for which the mortality at 50 µg/cm2 in assay [1] and in assay [2] was 50 to 100% in each case.
As for `O=C(NCC[S+]([O-])CC(F)(F)F)c1ccc(/C(F)=C/C(c2cc(Cl)c(Cl)c(Cl)c2)C(F)(F)F)cc1C(F)(F)F` (centres unmarked) [F50, (Z)-4-(1,4,4,4-tetrafluoro-3-(3,4,5-trichlorophenyl)but-1-en-1-yl)-N-(2-((2,2,2-trifluoroethyl)sulfinyl)ethyl)-2-(trifluoromethyl)benzamide], the mortality at 50 µg/cm2 in assay [1] and in assay [2] was 50 to 100% in each case.
Take `O=C(NCCSCC(F)(F)F)c1ccc(/C(F)=C/C(c2cc(Cl)c(Cl)c(Cl)c2)C(F)(F)F)cc1C(F)(F)F` (centres unmarked) [F51, (Z)-4-(1,4,4,4-tetrafluoro-3-(3,4,5-trichlorophenyl)but-1-en-1-yl)-N-(2-((2,2,2-trifluoroethyl)thio)ethyl)-2-(trifluoromethyl)benzamide]: the mortality at 50 µg/cm2 in assay [1] and in assay [2] was 50 to 100% each time.
Consider `C[C@H](CSCC(F)(F)F)NC(=O)c1ccc(/C(F)=C/C(c2ccc(Cl)c(Cl)c2)C(C)(F)F)cc1C(F)(F)F` (stereo partly drawn) [F57, 4-((Z)-3-(3,4-Dichlorophenyl)-1,4,4-trifluoropent-1-en-1-yl)-N—((R)-1-((2,2,2-trifluoroethyl)thio)propan-2-yl)-2-(trifluoromethyl)benzamide], for which the mortality at 50 µg/cm2 in assay [1] and in assay [2] was 50 to 100% throughout.
